Experimental data taken from US4992450A, “Piperidine opioid antagonists” (Eli Lilly and Company, priority 1989, dated 1991).
Where a name gives a salt, the structure may show the parent alone. Read-outs that look alike come from different tables or passages of the source.

What was measured:
[1] = test system: meal fed obese Zucker rats; test: Food consumption assay in meal fed obese Zucker rats; format: in vivo; settings: Rattus norvegicus, sc, 4 h, amount to decrease food consumption 20% during first four hours
Text: The following assay was employed to evaluate the ability of the compounds of the invention to effect food and water consumption of meal fed obese Zucker rats.
According to this procedure, 3-4 month old obese Zucker rats were trained to eat food daily from 8:00 A.M. to 4:00 P.M. only, such that the body weight gain approximates that if the rats were fed ad libitum. These rats were allowed to consume water at all times. Four groups of rats with four rats in each group, two female and two male, were formed. One group served as control for the other three groups each day. Each of the other groups were given a subcutaneous dose of the compound to be evaluated. The test compound was formulated in physiological saline containing 10% dimethylsulfoxide by volume.
Animals remained drug free for 4 days before the next test. Food and water consumption of each rat were measured for the first four hours. A test on one compound was run for three consecutive days. The drug effect was expressed as the percent of the control for that test day.
In the Table, column 1 gives the Example Number of the compound evaluated; and column 2 provides the ED20 in mg/kg, wherein ED20 represents the amount of compound evaluated in mg/kg necessary to decrease food consumption 20% during the first four hours of the experiment.

mu receptor = biological target: T1, mu receptor (Mus musculus, UniProt P42866); test: Mouse writhing assay, antagonism of morphine analgesia (mu); format: in vivo, CF-1 male mice; settings: sc, read-out: Mu AD50
T1 construct: Five CF-1 male mice (Charles River, Portage, Mich.); from tissue; host or cells: whole living CF-1 male mice (in vivo)

kappa receptor = biological target: T2, kappa receptor (Mus musculus, UniProt P33534); test: in vivo; parameters: species or system CF-1 male mice; settings: sc, read-out: Kappa AD50
T2 construct: Five CF-1 male mice (Charles River, Portage, Mich.); from tissue; host or cells: whole living CF-1 male mice (in vivo)

kappa receptors = biological target: T3, kappa receptors (Rattus norvegicus, UniProt P34975); test: Rat diuresis assay, antagonism of bremazocine-induced urination; format: in vivo, male Long-Evans hooded rats; settings: sc, rats, s.c., urinary output reduced to 50% of effect of 0.08 mg/kg bremazocine alone
T3 construct: sixty male Long-Evans hooded rats; from tissue; host or cells: whole living male Long-Evans hooded rats (in vivo)
Experimental: As such, the compounds of the invention were also evaluated in a rat diuresis assay conducted according to the following procedure described by Leander et al. in Drug Development Research 4:421-427 (1984) in an effort to further establish the ability of the present compounds to block kappa receptors.
According to this procedure, sixty male Long-Evans hooded rats (Charles River Breeding Laboratories, Portage, Mich.) weighing between about 300 and 500 grams each were housed either individually or in pairs in a temperature-controlled (23° C.) colony room which was illuminated between 6:00 A.M. and 6:00 P.M. Rodent chow and tap water were continuously available except during the measurement of urine output. The animals were used repeatedly, but no more frequently than twice a week.
The animals were then injected with various doses of the test compounds. To measure urine output, the animals were removed from the home cages, weighed, injected and placed in metabolism cages for 5 hr. Excreted urine was funneled into graduated cylinders. Cumulative urine volumes were determined at designated time intervals, usually at 2 and 5 hr after injection.
The compounds which are salt forms were dissolved in distilled water. If necessary, the compounds were dissolved in distilled water with the aid of either a few drops of lactic acid or hydrochloric acid and gentle warming. All injections were s.c. in a volume of 1 ml/kg of body weight. During tests for antagonism, two injections were given, one on each side of the body.
In the Table, column 1 provides the Example Number of the compound tested; column 2, the amount of compound in mg/kg necessary to reduce the urinary output to 50% of the effect produced by 0.08 mg/kg of bremazocine alone two hours after injection of bremazocine and the test compound; and column 3, the amount of compound in mg/kg necessary to reduce the urinary output to 50% of the effect produced by 0.08 mg/kg of bremazocine alone five hours after injection of bremazocine and the test compound.

[2] = 2 h, two hours after injection, read-out: AD50 Two Hours
[3] = 5 h, five hours after injection, read-out: AD50 Five Hours

T3 sequence (P34975 whole entry): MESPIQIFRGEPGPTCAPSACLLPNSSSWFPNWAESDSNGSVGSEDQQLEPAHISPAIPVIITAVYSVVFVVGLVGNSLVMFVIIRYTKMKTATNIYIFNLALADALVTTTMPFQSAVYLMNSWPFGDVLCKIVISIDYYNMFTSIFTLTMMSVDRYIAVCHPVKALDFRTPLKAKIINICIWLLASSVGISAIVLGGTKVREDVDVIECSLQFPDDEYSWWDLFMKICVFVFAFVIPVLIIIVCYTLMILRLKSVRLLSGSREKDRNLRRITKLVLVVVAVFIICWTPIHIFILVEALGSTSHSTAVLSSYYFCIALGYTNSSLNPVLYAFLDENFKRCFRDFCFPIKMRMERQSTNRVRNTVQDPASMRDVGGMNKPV
T2 sequence (P33534 whole entry): as the sequence (P34975 whole entry) above, with E11D, A17S, P51S, V308A counted along it
T1 sequence (P42866 whole entry): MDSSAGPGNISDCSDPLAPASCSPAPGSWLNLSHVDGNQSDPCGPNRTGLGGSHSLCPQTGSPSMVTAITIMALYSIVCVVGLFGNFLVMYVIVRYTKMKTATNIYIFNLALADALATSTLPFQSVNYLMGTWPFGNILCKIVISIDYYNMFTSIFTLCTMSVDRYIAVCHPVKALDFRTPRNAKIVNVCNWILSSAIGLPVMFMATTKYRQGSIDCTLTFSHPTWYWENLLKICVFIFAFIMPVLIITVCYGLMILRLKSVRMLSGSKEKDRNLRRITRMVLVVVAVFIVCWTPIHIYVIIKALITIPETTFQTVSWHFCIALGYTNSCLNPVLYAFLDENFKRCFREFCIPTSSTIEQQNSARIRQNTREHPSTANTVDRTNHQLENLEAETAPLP

SMILES	ED20 [1]	ED50 (mu receptor)	ED50 (kappa receptor)	ED50 (kappa receptors; [2])	ED50 (kappa receptors; [3])
C[C@H]1CN(CCC(=O)c2ccccc2)CC[C@@]1(C)c1cccc(O)c1 (relative stereo) [Compound C, 3-[4β-(3-Hydroxyphenyl)-3β,4α-dimethylpiperidino]propiophenone maleate, reference compound]	3.72 mg/kg	0.14 mg/kg	4.5 mg/kg		
C[C@H]1CN(CCC(O)C2CCCC2)CC[C@@]1(C)c1cccc(O)c1 (relative stereo) [Example 18, trans-(±)-1-[R,S-(1-Cyclopentylpropanol-3-yl)]-3,4-dimethyl-4-(3-hydroxyphenyl)piperidine hydrochloride]	0.07 mg/kg	0.04 mg/kg	0.08 mg/kg		
CC(C)C(O)CCN1CC[C@@](C)(c2cccc(O)c2)[C@@H](C)C1 (relative stereo) [Example 20, trans-(±)-1-[R,S-(3-Hydroxy-4-methylpentyl)]-3,4-dimethyl-4-(3-hydroxyphenyl)piperidine hydrochloride]	0.91 mg/kg	0.14 mg/kg	0.35 mg/kg		
CCCC(O)CCN1CC[C@@](C)(c2cccc(O)c2)[C@@H](C)C1 (relative stereo) [Example 30, trans-(±)-1-[R,S-(3-Hydroxyhexyl)]-3,4-dimethyl-4-(3-hydroxyphenyl)piperidine hydrochloride]		0.11 mg/kg	0.47 mg/kg		
CCCCCCN1CC[C@@](C)(c2cccc(O)c2)[C@@H](C)C1 (stereo in doubt) [Example 1, trans-(+)-1-(n-Hexyl)-3,4-dimethyl-4-(3-hydroxyphenyl)piperidine hydrochloride]	0.08 mg/kg	0.26 mg/kg	0.22 mg/kg		
CCCCCCN1CC[C@](C)(c2cccc(O)c2)[C@H](C)C1 (stereo in doubt) [Example 2, trans-(-)-1-(n-Hexyl)-3,4-dimethyl-4-(3-hydroxyphenyl)piperidine hydrochloride]	1.25 mg/kg	0.21 mg/kg	0.29 mg/kg		
CC(C)CCCCN1CC[C@@](C)(c2cccc(O)c2)[C@@H](C)C1 (stereo in doubt) [Example 28, trans-(+)-1-(5-Methylhexyl)-3,4-dimethyl-4-(3-hydroxyphenyl)piperidine hydrochloride]	0.12 mg/kg	0.08 mg/kg	0.22 mg/kg		
CC(C)CCCCN1CC[C@](C)(c2cccc(O)c2)[C@H](C)C1 (stereo in doubt) [Example 29, trans-(-)-1-(5-Methylhexyl)-3,4-dimethyl-4-(3-hydroxyphenyl)piperidine hydrochloride]	0.31 mg/kg	0.35 mg/kg	0.89 mg/kg		
C[C@H]1CN(CCCc2cccs2)CC[C@@]1(C)c1cccc(O)c1 (stereo in doubt) [Example 36, trans-(+)-1-[3-(2-Thienyl)propyl]-3,4-dimethyl-4-(3-hydroxyphenyl)piperidine]	0.05 mg/kg	0.05 mg/kg	0.11 mg/kg	4.65 mg/kg	1.65 mg/kg
C[C@@H]1CN(CCCc2cccs2)CC[C@]1(C)c1cccc(O)c1 (stereo in doubt) [Example 37, trans-(-)-1-[3-(2-Thienyl)propyl]-3,4-dimethyl-4-(3-hydroxyphenyl)piperidine hydrochloride]	0.19 mg/kg	0.24 mg/kg	0.65 mg/kg	2.92 mg/kg	1.66 mg/kg
C=CCN1CC[C@]23c4c5ccc(O)c4O[C@H]2C(=O)CC[C@@]3(O)[C@H]1C5 [Compound E, naloxone, reference compound]	1.4 mg/kg				
O=C1CC[C@@]2(O)[C@H]3Cc4ccc(O)c5c4[C@@]2(CCN3CC2CC2)[C@H]1O5 [Compound F, naltrexone, reference compound]	2.05 mg/kg				
CC1CN(CC2CCCC2)CCC1(C)c1cccc(O)c1 (stereo not drawn) [Example 5, trans-(±)-1-(Cyclopentylmethyl)-3,4-dimethyl-4-(3-hydroxyphenyl)piperidine hydrochloride]		1.01 mg/kg	0.54 mg/kg	1.91 mg/kg	0.92 mg/kg
CCCCCCCN1CCC(C)(c2cccc(O)c2)C(C)C1 (stereo not drawn) [Example 8, trans-(±)-1-(n-Heptyl)-3,4-dimethyl-4-(3-hydroxyphenyl)piperidine hydrochloride]	0.44 mg/kg	0.21 mg/kg	0.64 mg/kg	3.77 mg/kg	3.33 mg/kg
CC1CN(CCCC2CCCC2)CCC1(C)c1cccc(O)c1 (stereo not drawn) [Example 9, trans-(±)-1-(3-Cyclopentylpropyl)-3,4-dimethyl-4-(3-hydroxyphenyl)piperidine hydrochloride]	1.25 mg/kg	0.12 mg/kg	0.13 mg/kg	2.4 mg/kg	0.79 mg/kg
CC1CN(CCC(C)(C)C)CCC1(C)c1cccc(O)c1 (stereo not drawn) [Example 12, trans-(±)-1-(3,3-Dimethylbutyl)-3,4-dimethyl-4-(3-hydroxyphenyl)piperidine hydrochloride]		0.56 mg/kg	0.42 mg/kg	7.89 mg/kg	8.13 mg/kg
CC1CN(CCC2CCCCC2)CCC1(C)c1cccc(O)c1 (stereo not drawn) [Example 13, trans-(±)-1-(2-Cyclohexylethyl)-3,4-dimethyl-4-(3-hydroxyphenyl)piperidine hydrochloride]	4.56 mg/kg	0.1 mg/kg	0.12 mg/kg		
CCCCCN1CCC(C)(c2cccc(O)c2)C(C)C1 (stereo not drawn) [Example 14, trans-(±)-1-(n-Pentyl)-3,4-dimethyl-4-(3-hydroxyphenyl)piperidine hydrochloride]	4.47 mg/kg	0.37 mg/kg	0.6 mg/kg	0.78 mg/kg	0.69 mg/kg
CCCCCCN1CCC(C)(c2cccc(O)c2)C(C)C1 (stereo not drawn) [Example 22, trans-(±)-1-(n-Hexyl)-3,4-dimethyl-4-(3-hydroxyphenyl)piperidine hydrochloride]	0.78 mg/kg	0.05 mg/kg	0.11 mg/kg	1.31 mg/kg	0.7 mg/kg
C[C@H]1CN(CC[C@@H](O)C2CCCCC2)CC[C@@]1(C)c1cccc(O)c1 [Example 25, trans-(+)-1-[R-(3-Hydroxy-3-cyclohexylpropyl)]-3,4-dimethyl-4-(3-hydroxyphenyl)piperidine]	0.13 mg/kg	0.03 mg/kg	0.36 mg/kg		
CCCCCC(=O)CCN1CCC(C)(c2cccc(O)c2)C(C)C1 (stereo not drawn) [Example 32, trans-(±)-1-(3-Oxo-n-octyl)-3,4-dimethyl-4-(3-hydroxyphenyl)piperidine hydrochloride]		0.17 mg/kg	3.5 mg/kg		
CC1CN(CCC(=O)C2CCCCC2)CCC1(C)c1cccc(O)c1 (stereo not drawn) [Example 33, trans-(±)-1-(3-Oxo-3-cyclohexylpropyl)-3,4-dimethyl-4-(3-hydroxyphenyl)piperidine hydrochloride]		0.12 mg/kg	0.26 mg/kg		
CC1CN(CCCc2cccs2)CCC1(C)c1cccc(O)c1 (stereo not drawn) [Example 35, trans-(±)-1-[3-(2-Thienyl)propyl]-3,4-dimethyl-4-(3-hydroxyphenyl)piperidine hydrochloride]	0.08 mg/kg	0.22 mg/kg	0.3 mg/kg	2.2 mg/kg	1.04 mg/kg
CC1CN(CCc2cccs2)CCC1(C)c1cccc(O)c1 (stereo not drawn) [Example 38, trans-(±)-1-[2-(2-Thienyl)ethyl]-3,4-dimethyl-4-(3-hydroxyphenyl)piperidine hydrochloride]		0.25 mg/kg	0.25 mg/kg		2 mg/kg
